Measured values taken from patent US11358952B2, “Substituted 4-aminoisoindoline-1,3-dione compounds, compositions thereof, and methods of treatment therewith” (Celgene Corporation, priority 2018, dated 2022).

Each molecule was assayed on SU-DHL-4 cell line (assay: SU-DHL-4 cell proliferation assay (Cell Titer-Glo viability)). Details: Homo sapiens; cell viability IC50 activity level, DLBCL cell line SU-DHL-4, 120 hours post-treatment; read-out: SU-DHL-4 Act.
Type: cell-based
Method in brief: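 SU-DHL-4 cells (500/well, RPMI-1640 + 10% FBS) exposed to 20-point compound dilutions (0.5 nM–10 μM, 0.1% DMSO) for 120 h at 37°C, 5% CO2. Viability measured by Cell Titer-Glo luminescence at t0 and at 120 h. IC50 is the concentration giving 50% of DMSO control, from a four-parameter logistic fit.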

Structure (SMILES)	IC50 [nM]
Cc1cncc(N2CCN(Cc3ccc(CNc4cccc5c4C(=O)N(C4CCC(=O)NC4=O)C5=O)cc3)CC2)n1 (centres unmarked) [Cpd 186, 2-(2,6-dioxopiperidin-3-yl)-4-(4-((4-(6-methylpyrazin-2-yl)piperazin-1-yl)methyl)benzylamino)isoindoline-1,3-dione]	751 to 1000
O=C1CCC(N2C(=O)c3cccc(NCc4ccc(CN5CC6(COC6)C5)cc4F)c3C2=O)C(=O)N1 (centres unmarked) [Cpd 226, 4-(4-(2-oxa-6-azaspiro[3.3]heptan-6-ylmethyl)-2-fluorobenzylamino)-2-(2,6-dioxopiperidin-3-yl)isoindoline-1,3-dione]	200 to 500
CC(C)(C)C1CCN(Cc2ccc(CNc3cccc4c3C(=O)N(C3CCC(=O)NC3=O)C4=O)cc2)CC1 (centres unmarked) [Cpd 37, 4-(4-((4-tert-butylpiperidin-1-yl)methyl)benzylamino)-2-(2,6-dioxopiperidin-3-yl)isoindoline-1,3-dione]	< 200
Cc1nsc(N2CCN(Cc3ccc(CNc4cccc5c4C(=O)N(C4CCC(=O)NC4=O)C5=O)cc3)CC2)n1 (centres unmarked) [Cpd 194, 2-(2,6-dioxopiperidin-3-yl)-4-(4-((4-(3-methyl-1,2,4-thiadiazol-5-yl)piperazin-1-yl)methyl)benzylamino)isoindoline-1,3-dione]	< 200
O=C1CCC(N2C(=O)c3cccc(NCc4ccc(CN5CCN(c6ccc(Cl)cn6)CC5)cc4)c3C2=O)C(=O)N1 (centres unmarked) [Cpd 18, 4-(4-((4-(5-chloropyridin-2-yl)piperazin-1-yl)methyl)benzylamino)-2-(2,6-dioxopiperidin-3-yl)isoindoline-1,3-dione]	751 to 1000
CC(C)(C)OC1CCN(Cc2ccc(CNc3cccc4c3C(=O)N(C3CCC(=O)NC3=O)C4=O)cc2)CC1 (centres unmarked) [Cpd 38, 4-(4-((4-tert-butoxypiperidin-1-yl)methyl)benzylamino)-2-(2,6-dioxopiperidin-3-yl)isoindoline-1,3-dione]	< 200
NC(=O)c1ccc(N2CCN(Cc3ccc(CNc4cccc5c4C(=O)N([C@@H]4CCC(=O)NC4=O)C5=O)cc3)CC2)cn1 [Cpd 91, (R)-5-(4-(4-((2-(2,6-dioxopiperidin-3-yl)-1,3-dioxoisoindolin-4-ylamino)methyl)benzyl)piperazin-1-yl)picolinamide]	< 200
CC1(C)CN(c2ccc(C#N)cn2)CCN1Cc1ccc(CNc2cccc3c2C(=O)N(C2CCC(=O)NC2=O)C3=O)cc1 (centres unmarked) [Cpd 84, 6-(4-(4-((2-(2,6-dioxopiperidin-3-yl)-1,3-dioxoisoindolin-4-ylamino)methyl)benzyl)-3,3-dimethylpiperazin-1-yl)nicotinonitrile]	< 200
O=C1CCC(N2C(=O)c3cccc(NCc4ccc(CN5CCN(c6ccc(F)cc6)CC5)cc4)c3C2=O)C(=O)N1 (centres unmarked) [Cpd 2, 2-(2,6-dioxopiperidin-3-yl)-4-(4-((4-(4-fluorophenyl)piperazin-1-yl)methyl)benzylamino)isoindoline-1,3-dione]	501 to 750
Cc1cc(CNc2cccc3c2C(=O)N(C2CCC(=O)NC2=O)C3=O)ccc1CN1CC2(COC2)C1 (centres unmarked) [Cpd 228, 4-(4-(2-oxa-6-aaspiro[3.3]heptan-6-ylmethyl)-3-methylbenzylamino)-2-(2,6-dioxopiperidin-3-yl)isoindoline-1,3-dione]	200 to 500
NC(=O)c1ncccc1N1CCN(Cc2ccc(CNc3cccc4c3C(=O)N(C3CCC(=O)NC3=O)C4=O)c(F)c2)CC1 (centres unmarked) [Cpd 180, 3-(4-(4-((2-(2,6-dioxopiperidin-3-yl)-1,3-dioxoisoindolin-4-ylamino)methyl)-3-fluorobenzyl)piperazin-1-yl)picolinamide]	200 to 500
NC(=O)c1ccc(N2CCN(Cc3ccc(CNc4cccc5c4C(=O)N(C4CCC(=O)NC4=O)C5=O)cc3)CC2)cn1 (centres unmarked) [Cpd 17, 5-(4-(4-((2-(2,6-dioxopiperidin-3-yl)-1,3-dioxoisoindolin-4-ylamino)methyl)benzyl)piperazin-1-yl)picolinamide]	< 200
Cc1cc(CNc2cccc3c2C(=O)N(C2CCC(=O)NC2=O)C3=O)ccc1CN1CCC(C(=O)N(C)C)CC1 (centres unmarked) [Cpd 79, 1-(4-((2-(2,6-dioxopiperidin-3-yl)-1,3-dioxoisoindolin-4-ylamino)methyl)-2-methylbenzyl)-N,N-dimethylpiperidine-4-carboxamide]	200 to 500
Cc1cc(CNc2cccc3c2C(=O)N(C2CCC(=O)NC2=O)C3=O)ccc1CN1CC(c2ccc(C#N)cc2)C1 (centres unmarked) [Cpd 51, 4-(1-(4-((2-(2,6-dioxopiperidin-3-yl)-1,3-dioxoisoindolin-4-ylamino)methyl)-2-methylbenzyl)aetidin-3-yl)benzonitrile]	< 200
O=C1CCC(N2C(=O)c3cccc(NCc4ccc(CN5CCC(O)(c6ccccn6)CC5)cc4F)c3C2=O)C(=O)N1 (centres unmarked) [Cpd 167, 2-(2,6-dioxopiperidin-3-yl)-4-(2-fluoro-4-((4-hydroxy-4-(pyridin-2-yl)piperidin-1-yl)methyl)benzylamino)isoindoline-1,3-dione]	< 200
O=C1CCC(N2C(=O)c3cccc(NCc4ccc(CN5CC(c6ccccc6)C5)cc4)c3C2=O)C(=O)N1 (centres unmarked) [Cpd 6, 2-(2,6-dioxopiperidin-3-yl)-4-(4-((3-phenylazetidin-1-yl)methyl)benzylamino)isoindoline-1,3-dione]	501 to 750
Cc1cc(CNc2cccc3c2C(=O)N(C2CCC(=O)NC2=O)C3=O)ccc1CN1CCC(C(F)F)CC1 (centres unmarked) [Cpd 48, 4-(4-((4-(difluoromethyl)piperidin-1-yl)methyl)-3-methylbenzylamino)-2-(2,6-dioxopiperidin-3-yl)isoindoline-1,3-dione]	200 to 500
Cc1cc(CNc2cccc3c2C(=O)N(C2CCC(=O)NC2=O)C3=O)ccc1CN1CC(Oc2ccccc2)C1 (centres unmarked) [Cpd 82, 2-(2,6-dioxopiperidin-3-yl)-4-(3-methyl-4-((3-phenoxyazetidin-1-yl)methyl)benzylamino)isoindoline-1,3-dione]	501 to 750
CC(C)(C)C1CCN(Cc2ccc(CNc3cccc4c3C(=O)N(C3CCC(=O)NC3=O)C4=O)cc2F)CC1 (centres unmarked) [Cpd 92, 4-(4-((4-tert-butylpiperidin-1-yl)methyl)-3-fluorobenzylamino)-2-(2,6-dioxopiperidin-3-yl)isoindoline-1,3-dione]	< 200
NC(=O)c1ccc(N2CCN(Cc3ccc(CNc4cccc5c4C(=O)N(C4CCC(=O)NC4=O)C5=O)c(F)c3)CC2)cc1 (centres unmarked) [Cpd 139, 4-(4-(4-((2-(2,6-dioxopiperidin-3-yl)-1,3-dioxoisoindolin-4-ylamino)methyl)-3-fluorobenzyl)piperazin-1-yl)benzamide]	< 200
O=C1CCC(N2C(=O)c3cccc(NCc4ccc(CN5CCOCC5)cc4F)c3C2=O)C(=O)N1 (centres unmarked) [Cpd 154, 2-(2,6-dioxopiperidin-3-yl)-4-(2-fluoro-4-(morpholinomethyl)benzylamino) isoindoline-1,3-dione]	200 to 500
O=C1CCC(N2C(=O)c3cccc(NCc4ccc(CN5CCN(c6ccc(F)cc6F)CC5)cc4F)c3C2=O)C(=O)N1 (centres unmarked) [Cpd 108, 4-(4-((4-(2,4-difluorophenyl)piperazin-1-yl)methyl)-2-fluorobenzylamino)-2-(2,6-dioxopiperidin-3-yl)isoindoline-1,3-dione]	< 200
CN1CCC2(CCN(Cc3ccc(CNc4cccc5c4C(=O)N(C4CCC(=O)NC4=O)C5=O)cc3)CC2)C1=O (centres unmarked) [Cpd 122, 2-(2,6-dioxopiperidin-3-yl)-4-(4-((2-methyl-1-oxo-2,8-diazaspiro[4.5]decan-8-yl)methyl)benzylamino)isoindoline-1,3-dione]	200 to 500
